What was measured:
Test in all cases: relative viability (nuclei count vs DMSO), 5 days (fraction); higher = more cells survive
[1] = test system: EKVX
In short: (§1)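 Medians of duplicate plates are given as relative viability. That measure is the nuclei count in treated wells divided by the count in vehicle wells. Counts were taken on 4× images of lung cancer cell lines in 1536-well plates, 5 days after pin-tool dosing the day after seeding with one drug alone or a fixed anchor-drug dose plus five library-drug doses (not always all listed) in √10 steps.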

[2] = test system: NCI-H1650
In short: as §1

[3] = test system: LK-2
In short: as §1

[4] = test system: NCI-H1734
In short: as §1

[5] = test system: CAL-12T
In short: as §1

[6] = test system: NCI-H2342
In short: as §1

[7] = test system: NCI-H2405
In short: as §1

[8] = test system: NCI-H661
In short: as §1

[9] = test system: HCC-827
In short: as §1

[10] = test system: LCLC-97TM1
In short: as §1

[11] = test system: NCI-H1755
In short: as §1

[12] = test system: NCI-H2228
In short: as §1

[13] = test system: NCI-H1975
In short: as §1

[14] = test system: HCC-15
In short: as §1

[15] = test system: PC-3 [JPC-3]
In short: as §1

[16] = test system: H3255
In short: as §1

[17] = test system: RERF-LC-KJ
In short: as §1

[18] = test system: NCI-H1563
In short: as §1

[19] = test system: NCI-H520
In short: as §1

[20] = test system: NCI-H322M
In short: as §1

[21] = test system: NCI-H1355
In short: as §1

[22] = test system: PC-14
In short: as §1

`COc1cc2nccc(Oc3ccc(NC(=O)Nc4cc(C)on4)c(Cl)c3)c2cc1OC` [Tivozanib] + Nc1nc2[nH]cc(CCc3ccc(C(=O)N[C@@H](CCC(=O)O)C(=O)O)cc3)c2c(=O)[nH]1 [Pemetrexed] (partner 0.2 µM) showed a relative viability ([1]; first compound 0.005 µM) of 0.377, a relative viability ([1]; first compound 0.01581 µM) of 0.408 and a relative viability ([1]; first compound 0.05 µM) of 0.394. It also gave a relative viability ([1]; first compound 0.1581 µM) of 0.432, a relative viability ([1]; first compound 0.5 µM) of 0.355 and a relative viability ([2]; first compound 0.005 µM) of 0.362. For the same molecule, the relative viability ([2]; first compound 0.01581 µM) was 0.342, the relative viability ([2]; first compound 0.05 µM) was 0.384 and the relative viability ([2]; first compound 0.1581 µM) was 0.309. For the same molecule, the relative viability ([2]; first compound 0.5 µM) was 0.354, the relative viability ([3]; first compound 0.005 µM) was 0.254 and the relative viability ([3]; first compound 0.01581 µM) was 0.258. For the same molecule, the relative viability ([3]; first compound 0.05 µM) was 0.289, the relative viability ([3]; first compound 0.1581 µM) was 0.203 and the relative viability ([3]; first compound 0.5 µM) was 0.197. It also gave a relative viability ([4]; first compound 0.005 µM) of 0.426, a relative viability ([4]; first compound 0.01581 µM) of 0.39 and a relative viability ([4]; first compound 0.05 µM) of 0.404. For the same molecule, the relative viability ([4]; first compound 0.1581 µM) was 0.402, the relative viability ([4]; first compound 0.5 µM) was 0.404 and the relative viability ([5]; first compound 0.005 µM) was 1.25. The relative viability ([5]; first compound 0.01581 µM) was 1.15, the relative viability ([5]; first compound 0.05 µM) was 1.13 and the relative viability ([5]; first compound 0.1581 µM) was 1.13. The relative viability ([5]; first compound 0.5 µM) was 1.12, the relative viability ([6]; first compound 0.005 µM) was 0.753 and the relative viability ([6]; first compound 0.01581 µM) was 0.754. For the same molecule, the relative viability ([6]; first compound 0.05 µM) was 0.802, the relative viability ([6]; first compound 0.5 µM) was 0.757 and the relative viability ([7]; first compound 0.005 µM) was 1.05. The relative viability ([7]; first compound 0.01581 µM) was 1.13, the relative viability ([7]; first compound 0.05 µM) was 1.09 and the relative viability ([7]; first compound 0.1581 µM) was 1.01. For the same molecule, the relative viability ([7]; first compound 0.5 µM) was 0.792, the relative viability ([8]; first compound 0.005 µM) was 0.887 and the relative viability ([8]; first compound 0.01581 µM) was 0.928. For the same molecule, the relative viability ([8]; first compound 0.05 µM) was 0.922, the relative viability ([8]; first compound 0.1581 µM) was 0.909 and the relative viability ([8]; first compound 0.5 µM) was 0.854. The relative viability ([9]; first compound 0.005 µM) was 0.266, the relative viability ([9]; first compound 0.01581 µM) was 0.255 and the relative viability ([9]; first compound 0.05 µM) was 0.242. It also gave a relative viability ([9]; first compound 0.1581 µM) of 0.259, a relative viability ([9]; first compound 0.5 µM) of 0.253 and a relative viability ([10]; first compound 0.005 µM) of 0.183. It also gave a relative viability ([10]; first compound 0.01581 µM) of 0.178, a relative viability ([10]; first compound 0.05 µM) of 0.157 and a relative viability ([10]; first compound 0.1581 µM) of 0.172. For the same molecule, the relative viability ([10]; first compound 0.5 µM) was 0.148, the relative viability ([11]; first compound 0.005 µM) was 0.376 and the relative viability ([11]; first compound 0.01581 µM) was 0.437. The relative viability ([11]; first compound 0.05 µM) was 0.571, the relative viability ([11]; first compound 0.1581 µM) was 0.468 and the relative viability ([11]; first compound 0.5 µM) was 0.361. It also gave a relative viability ([12]; first compound 0.005 µM) of 0.31, a relative viability ([12]; first compound 0.01581 µM) of 0.32 and a relative viability ([12]; first compound 0.05 µM) of 0.369. It also gave a relative viability ([12]; first compound 0.1581 µM) of 0.346, a relative viability ([12]; first compound 0.5 µM) of 0.315 and a relative viability ([13]; first compound 0.005 µM) of 0.271. The relative viability ([13]; first compound 0.01581 µM) was 0.285, the relative viability ([13]; first compound 0.05 µM) was 0.283 and the relative viability ([13]; first compound 0.1581 µM) was 0.332. The relative viability ([13]; first compound 0.5 µM) was 0.294, the relative viability ([14]; first compound 0.005 µM) was 0.21 and the relative viability ([14]; first compound 0.01581 µM) was 0.224. For the same molecule, the relative viability ([14]; first compound 0.05 µM) was 0.235, the relative viability ([14]; first compound 0.1581 µM) was 0.226 and the relative viability ([14]; first compound 0.5 µM) was 0.238. For the same molecule, the relative viability ([15]; first compound 0.01581 µM) was 1.09, the relative viability ([15]; first compound 0.05 µM) was 1.09 and the relative viability ([15]; first compound 0.1581 µM) was 1.06. The relative viability ([15]; first compound 0.5 µM) was 0.936, the relative viability ([16]; first compound 0.005 µM) was 0.545 and the relative viability ([16]; first compound 0.01581 µM) was 0.563. It also gave a relative viability ([16]; first compound 0.05 µM) of 0.583, a relative viability ([16]; first compound 0.1581 µM) of 0.55 and a relative viability ([16]; first compound 0.5 µM) of 0.547. For the same molecule, the relative viability ([17]; first compound 0.005 µM) was 0.465, the relative viability ([17]; first compound 0.01581 µM) was 0.441 and the relative viability ([17]; first compound 0.05 µM) was 0.479. It also gave a relative viability ([17]; first compound 0.1581 µM) of 0.465, a relative viability ([17]; first compound 0.5 µM) of 0.439 and a relative viability ([18]; first compound 0.005 µM) of 0.657. For the same molecule, the relative viability ([18]; first compound 0.01581 µM) was 0.887, the relative viability ([18]; first compound 0.05 µM) was 0.698 and the relative viability ([18]; first compound 0.1581 µM) was 0.594. The relative viability ([18]; first compound 0.5 µM) was 0.728, the relative viability ([19]; first compound 0.005 µM) was 0.525 and the relative viability ([19]; first compound 0.01581 µM) was 0.572. It also gave a relative viability ([19]; first compound 0.05 µM) of 0.552, a relative viability ([19]; first compound 0.1581 µM) of 0.579 and a relative viability ([19]; first compound 0.5 µM) of 0.61. For the same molecule, the relative viability ([20]; first compound 0.005 µM) was 0.586, the relative viability ([20]; first compound 0.01581 µM) was 0.621 and the relative viability ([20]; first compound 0.05 µM) was 0.588. It also gave a relative viability ([20]; first compound 0.1581 µM) of 0.635, a relative viability ([20]; first compound 0.5 µM) of 0.602 and a relative viability ([21]; first compound 0.005 µM) of 1.03. The relative viability ([21]; first compound 0.01581 µM) was 1.01, the relative viability ([21]; first compound 0.05 µM) was 1.04 and the relative viability ([21]; first compound 0.1581 µM) was 0.763. For the same molecule, the relative viability ([21]; first compound 0.5 µM) was 1.07, the relative viability ([22]; first compound 0.005 µM) was 0.124 and the relative viability ([22]; first compound 0.01581 µM) was 0.138. For the same molecule, the relative viability ([22]; first compound 0.05 µM) was 0.129, the relative viability ([22]; first compound 0.1581 µM) was 0.155 and the relative viability ([22]; first compound 0.5 µM) was 0.115.
